Source: patent US12441703B2, “Carboxamides as modulators of sodium channels” (VERTEX PHARMACEUTICALS INCORPORATED, priority 2019, dated 2025)

Molecular target: human NaV 1.8 (Homo sapiens, UniProt Q9Y5Y9)
Test: E-VIPR assay for detecting and measuring NaV inhibition properties
Assay type: cell-based
Conditions: E-VIPR assay conducted in the presence of human serum; HEK cells expressing truncated human NaV 1.8; read-out: IC50
Excerpt: Sodium ion channels are voltage-dependent proteins that can be activated by inducing membrane voltage changes by applying electric fields. The electrical stimulation instrument and methods of use, referred to as E-VIPR, are described in International Publication No. WO 2002/008748 A3 and C.-J. Huang et al. Characterization of voltage-gated sodium channel blockers by electrical stimulation and fluorescence detection of membrane potential, 24 Nature Biotech. 439-46 (2006), both of which are incorporated by reference in their entirety. The instrument comprises a microtiter plate handler, an optical system for exciting the coumarin dye while simultaneously recording the coumarin and oxonol emissions, a waveform generator, a current- or voltage-controlled amplifier, and parallel electrode pairs that are inserted into assay plate wells. Under integrated computer control, this instrument passes user-programmed electrical stimulus protocols to cells within the wells of the microtiter plate.
16-20 hours prior to running the assay on E-VIPR, HEK cells expressing a truncated form of human NaV 1.8 with full channel activity were seeded into microtiter 384-well plates, pre-coated with matrigel, at a density of 25,000 cells per well. 2.5-5% KIR2.1 Bacmam virus was added to the final cell suspension before seeding into cell plates. HEK cells were grown in Dulbecco's Modified Eagle's Medium (DMEM) supplemented with 10% FBS (Fetal Bovine Serum, qualified; Sigma #F4135), 1% NEAA (Non-Essential Amino Acids, Gibco #11140), 1% HEPES (Gibco #15630), 1% Pen-Strep (Penicillin-Streptomycin; Gibco #15140) and 5 μg/ml Blasticidin (Gibco #R210-01). Cells were expanded in vented cap cell culture flasks, with 90-95% humidity and 5% CO2.
Compound Loading Buffer (2× concentration): Na/TMA Cl Bath1 Buffer containing HS (omitted in experiments run in the absence of human serum (HS)) 50%, VABSC-1 1 mM, BSA 0.2 mg/ml (in Bath-1), KCl 9 mM, DMSO 0.75%.
• 1) To reach the final concentration in each well, 400 nL of each compound was pre-spotted (in neat DMSO) into polypropylene compound plates at 250× desired final concentration from an intermediate stock concentration of 0.075 mM, in an 11 point dose response, 3-fold dilution, resulting in a top dose of 300 nM final concentration in the cell plate. Vehicle control (neat DMSO), and positive control (an established NaV1.8 inhibitor, 25 μM final in assay in DMSO) were added manually to the outermost columns of each plate respectively. The compound plate was backfilled with 45 μL per well of Compound Loading Buffer resulting in a 250 fold dilution of compound following a 1:1 transfer of compound into the cell plate (see Step 6). Final DMSO concentration for all wells in the assay was 0.625% (0.75% DMSO was supplemented to the Compound Loading Buffer for a final DMSO concentration of 0.625%). This assay dilution protocol was adjusted to enable a higher dose range to be tested in the presence of HS or if the final assay volume was altered. • 2) Hexyl Dye Solution was prepared. • 3) Cell plates were prepared. On the day of the assay, the media was aspirated, and the cells were washed three times with 80 μL of Bath-1 buffer, maintaining 25 μL residual volume in each well. • 4) 25 μL per well of Hexyl Dye Solution was dispensed into the cell plates. The cells were incubated for 20 minutes at room temperature or ambient conditions in darkness. • 5) 45 μL per well of Compound Loading Buffer was dispensed into compound plates. • 6) The cell plates were washed three times with 80 μL per well of Bath-1 Buffer, leaving 25 µL of residual volume. Then 25 μL per well from compound plate was transferred to each cell plate. The mixture was incubated for 30 minutes at room temperature/ambient conditions. • 7) The cell plate containing compound was read on E-VIPR using the current-controlled amplifier to deliver stimulation wave pulses using a symmetrical biphasic waveform. […]

Chain of human NaV 1.8 (Q9Y5Y9 whole entry, looked up): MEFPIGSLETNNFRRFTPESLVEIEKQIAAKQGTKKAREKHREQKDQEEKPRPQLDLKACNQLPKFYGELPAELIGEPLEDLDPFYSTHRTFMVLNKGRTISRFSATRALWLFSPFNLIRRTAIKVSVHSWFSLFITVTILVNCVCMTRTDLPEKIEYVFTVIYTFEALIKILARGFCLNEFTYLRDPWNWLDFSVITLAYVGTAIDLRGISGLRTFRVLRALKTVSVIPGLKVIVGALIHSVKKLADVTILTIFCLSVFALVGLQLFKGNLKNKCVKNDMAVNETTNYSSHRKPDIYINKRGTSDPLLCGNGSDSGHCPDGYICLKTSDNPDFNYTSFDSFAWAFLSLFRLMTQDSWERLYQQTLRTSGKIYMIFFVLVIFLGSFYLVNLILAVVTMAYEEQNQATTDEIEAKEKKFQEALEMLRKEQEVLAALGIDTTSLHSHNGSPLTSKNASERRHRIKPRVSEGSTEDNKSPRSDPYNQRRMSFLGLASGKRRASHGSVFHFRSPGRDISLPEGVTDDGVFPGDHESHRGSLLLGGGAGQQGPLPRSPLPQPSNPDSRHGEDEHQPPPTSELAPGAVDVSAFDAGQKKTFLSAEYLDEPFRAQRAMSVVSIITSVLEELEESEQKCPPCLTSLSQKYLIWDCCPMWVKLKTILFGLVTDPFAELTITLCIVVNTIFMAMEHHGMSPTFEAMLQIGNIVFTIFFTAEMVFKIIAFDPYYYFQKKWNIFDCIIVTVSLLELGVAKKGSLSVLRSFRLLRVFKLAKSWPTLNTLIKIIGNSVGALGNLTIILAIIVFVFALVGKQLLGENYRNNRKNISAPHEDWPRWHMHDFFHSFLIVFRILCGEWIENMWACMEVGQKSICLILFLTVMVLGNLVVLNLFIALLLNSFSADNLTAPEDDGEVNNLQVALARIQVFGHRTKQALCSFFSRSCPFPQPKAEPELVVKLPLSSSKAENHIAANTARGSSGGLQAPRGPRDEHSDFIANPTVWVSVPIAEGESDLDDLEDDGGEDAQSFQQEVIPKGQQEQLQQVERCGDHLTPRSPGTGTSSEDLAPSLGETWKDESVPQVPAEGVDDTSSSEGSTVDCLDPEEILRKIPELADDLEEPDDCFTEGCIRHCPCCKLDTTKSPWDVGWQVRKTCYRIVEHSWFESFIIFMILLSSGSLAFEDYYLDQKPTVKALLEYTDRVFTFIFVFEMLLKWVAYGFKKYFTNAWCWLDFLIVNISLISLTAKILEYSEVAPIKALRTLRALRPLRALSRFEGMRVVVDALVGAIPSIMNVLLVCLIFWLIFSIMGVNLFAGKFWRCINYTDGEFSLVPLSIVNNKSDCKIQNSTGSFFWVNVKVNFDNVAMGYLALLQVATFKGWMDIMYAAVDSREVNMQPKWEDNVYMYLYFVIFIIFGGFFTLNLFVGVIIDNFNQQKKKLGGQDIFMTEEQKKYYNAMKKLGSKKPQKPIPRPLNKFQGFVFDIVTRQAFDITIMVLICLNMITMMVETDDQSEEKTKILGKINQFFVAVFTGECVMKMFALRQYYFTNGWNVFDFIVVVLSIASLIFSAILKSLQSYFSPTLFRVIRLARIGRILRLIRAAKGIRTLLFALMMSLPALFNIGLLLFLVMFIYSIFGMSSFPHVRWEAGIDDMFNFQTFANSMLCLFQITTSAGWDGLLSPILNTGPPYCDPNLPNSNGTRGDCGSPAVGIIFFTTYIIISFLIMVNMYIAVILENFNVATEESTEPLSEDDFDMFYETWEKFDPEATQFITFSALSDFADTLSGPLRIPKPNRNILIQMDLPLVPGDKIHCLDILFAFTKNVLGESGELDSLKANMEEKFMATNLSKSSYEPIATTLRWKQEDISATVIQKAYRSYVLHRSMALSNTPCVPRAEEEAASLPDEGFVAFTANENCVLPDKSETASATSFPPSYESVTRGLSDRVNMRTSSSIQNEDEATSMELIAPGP

IC50 [nM]	Structure (SMILES)
10	NC(=O)c1cc(NC(=O)c2c(Oc3ccc(OC(F)(F)F)cc3C3CC3)ccc(C(F)(F)F)c2F)ccn1 [Compound 41, 4-[[6-[2-cyclopropyl-4-(trifluoromethoxy)phenoxy]-2-fluoro-3-(trifluoromethyl)benzoyl]amino]pyridine-2-carboxamide]
8	Cc1c(Oc2ccc(C(F)(F)F)c(F)c2C(=O)Nc2ccnc(C(N)=O)c2)ccc(F)c1F [Compound 42, 4-[[6-(3,4-difluoro-2-methyl-phenoxy)-2-fluoro-3-(trifluoromethyl)benzoyl]amino]pyridine-2-carboxamide]
13	COc1cc(Cl)ccc1Oc1ccc(C(F)(F)F)c(F)c1C(=O)Nc1ccnc(C(N)=O)c1 [Compound 43, 4-[[6-(4-chloro-2-methoxy-phenoxy)-2-fluoro-3-(trifluoromethyl)benzoyl]amino]pyridine-2-carboxamide]
22	COc1cc(C(F)(F)C(F)(F)F)ccc1Oc1ccc(C(F)(F)F)c(F)c1C(=O)Nc1ccnc(C(N)=O)c1 [Compound 44, 4-[[2-fluoro-6-[2-methoxy-4-(1,1,2,2,2-pentafluoroethyl)phenoxy]-3-(trifluoromethyl)benzoyl]amino]pyridine-2-carboxamide]
> 3000	COc1cc(C)cc(OC)c1Oc1ccc(C(F)(F)F)c(F)c1C(=O)Nc1ccnc(C(N)=O)c1 [Compound 45, 4-[[6-(2,6-dimethoxy-4-methyl-phenoxy)-2-fluoro-3-(trifluoromethyl)benzoyl]amino]pyridine-2-carboxamide]
> 3000	NC(=O)c1cc(NC(=O)c2c(Oc3c(F)cc(F)cc3F)ccc(C(F)(F)F)c2F)ccn1 [Compound 46, 4-[[2-fluoro-3-(trifluoromethyl)-6-(2,4,6-trifluorophenoxy)benzoyl]amino]pyridine-2-carboxamide]
1400	Cc1cc(Cl)cc(Cl)c1Oc1ccc(C(F)(F)F)c(F)c1C(=O)Nc1ccnc(C(N)=O)c1 [Compound 47, 4-[[6-(2,4-dichloro-6-methyl-phenoxy)-2-fluoro-3-(trifluoromethyl)benzoyl]amino]pyridine-2-carboxamide]
50	Cc1c(F)ccc(Oc2ccc(C(F)(F)F)c(F)c2C(=O)Nc2ccnc(C(N)=O)c2)c1C [Compound 48, 4-[[2-fluoro-6-(4-fluoro-2,3-dimethyl-phenoxy)-3-(trifluoromethyl)benzoyl]amino]pyridine-2-carboxamide]
42	NC(=O)c1cc(NC(=O)c2c(Oc3ccc(F)c(F)c3F)ccc(C(F)(F)F)c2F)ccn1 [Compound 49, 4-[[2-fluoro-3-(trifluoromethyl)-6-(2,3,4-trifluorophenoxy)benzoyl]amino]pyridine-2-carboxamide]
33	Cc1cc(Cl)ccc1Oc1ccc(C(F)(F)F)c(F)c1C(=O)Nc1ccnc(C(N)=O)c1 [Compound 50, 4-[[6-(4-chloro-2-methyl-phenoxy)-2-fluoro-3-(trifluoromethyl)benzoyl]amino]pyridine-2-carboxamide]
200	NC(=O)c1cc(NC(=O)c2c(Oc3ccc(Cl)cc3F)ccc(C(F)(F)F)c2F)ccn1 [Compound 51, 4-[[6-(4-chloro-2-fluoro-phenoxy)-2-fluoro-3-(trifluoromethyl)benzoyl]amino]pyridine-2-carboxamide]
170	COc1cc(F)ccc1Oc1ccc(C(F)(F)F)c(OC)c1C(=O)Nc1ccnc(C(N)=O)c1 [Compound 52, 4-[[6-(4-fluoro-2-methoxy-phenoxy)-2-methoxy-3-(trifluoromethyl)benzoyl]amino]pyridine-2-carboxamide]
110	COc1c(C(F)(F)F)ccc(Oc2ccc(OC(C)C)cc2)c1C(=O)Nc1ccnc(C(N)=O)c1 [Compound 53, 4-[[6-(4-isopropoxyphenoxy)-2-methoxy-3-(trifluoromethyl)benzoyl]amino]pyridine-2-carboxamide]
510	COc1ccc(Cl)cc1Oc1ccc(C(F)(F)F)c(OC)c1C(=O)Nc1ccnc(C(N)=O)c1 [Compound 54, 4-[[6-(5-chloro-2-methoxy-phenoxy)-2-methoxy-3-(trifluoromethyl)benzoyl]amino]pyridine-2-carboxamide]
420	COc1c(C(F)(F)F)ccc(Oc2ccc(F)c(F)c2)c1C(=O)Nc1ccnc(C(N)=O)c1 [Compound 55, 4-[[6-(3,4-difluorophenoxy)-2-methoxy-3-(trifluoromethyl)benzoyl]amino]pyridine-2-carboxamide]
48	COc1c(C(F)(F)F)ccc(Oc2ccc(OC(C)C)c(Cl)c2)c1C(=O)Nc1ccnc(C(N)=O)c1 [Compound 56, 4-[[6-(3-chloro-4-isopropoxy-phenoxy)-2-methoxy-3-(trifluoromethyl)benzoyl]amino]pyridine-2-carboxamide]
350	COc1c(C(F)(F)F)ccc(Oc2ccc(F)c(Cl)c2)c1C(=O)Nc1ccnc(C(N)=O)c1 [Compound 57, 4-[[6-(3-chloro-4-fluoro-phenoxy)-2-methoxy-3-(trifluoromethyl)benzoyl]amino]pyridine-2-carboxamide]
150	COc1c(Oc2ccc(C(F)(F)F)c(OC)c2C(=O)Nc2ccnc(C(N)=O)c2)ccc(F)c1F [Compound 58, 4-[[6-(3,4-difluoro-2-methoxy-phenoxy)-2-methoxy-3-(trifluoromethyl)benzoyl]amino]pyridine-2-carboxamide]
100	COc1c(C(F)(F)F)ccc(Oc2ccc(F)cc2Cl)c1C(=O)Nc1ccnc(C(N)=O)c1 [Compound 59, 4-[[6-(2-chloro-4-fluoro-phenoxy)-2-methoxy-3-(trifluoromethyl)benzoyl]amino]pyridine-2-carboxamide]
520	COc1c(C(F)(F)F)ccc(Oc2ccc(OC3CCCCC3)cc2)c1C(=O)Nc1ccnc(C(N)=O)c1 [Compound 60, 4-[[6-[4-(cyclohexoxy)phenoxy]-2-methoxy-3-(trifluoromethyl)benzoyl]amino]pyridine-2-carboxamide]
490	COc1c(C(F)(F)F)ccc(Oc2ccc(F)c(C)c2)c1C(=O)Nc1ccnc(C(N)=O)c1 [Compound 61, 4-[[6-(4-fluoro-3-methyl-phenoxy)-2-methoxy-3-(trifluoromethyl)benzoyl]amino]pyridine-2-carboxamide]
440	COc1c(C(F)(F)F)ccc(Oc2ccc(F)cc2F)c1C(=O)Nc1ccnc(C(N)=O)c1 [Compound 62, 4-[[6-(2,4-difluorophenoxy)-2-methoxy-3-(trifluoromethyl)benzoyl]amino]pyridine-2-carboxamide]
1800	COc1c(C(F)(F)F)ccc(Oc2ccccc2)c1C(=O)Nc1ccnc(C(N)=O)c1 [Compound 63, 4-[[2-methoxy-6-phenoxy-3-(trifluoromethyl)benzoyl]amino]pyridine-2-carboxamide]
63	COc1c(C(F)(F)F)ccc(Oc2ccc(F)cc2C)c1C(=O)Nc1ccnc(C(N)=O)c1 [Compound 64, 4-[[6-(4-fluoro-2-methyl-phenoxy)-2-methoxy-3-(trifluoromethyl)benzoyl]amino]pyridine-2-carboxamide]
36	COc1c(C(F)(F)F)ccc(Oc2ccc(OC(F)(F)F)c(F)c2)c1C(=O)Nc1ccnc(C(N)=O)c1 [Compound 65, 4-[[6-[3-fluoro-4-(trifluoromethoxy)phenoxy]-2-methoxy-3-(trifluoromethyl)benzoyl]amino]pyridine-2-carboxamide]
16	COc1c(C(F)(F)F)ccc(Oc2ccc(OC(F)(F)F)cc2Cl)c1C(=O)Nc1ccnc(C(N)=O)c1 [Compound 66, 4-[[6-[2-chloro-4-(trifluoromethoxy)phenoxy]-2-methoxy-3-(trifluoromethyl)benzoyl]amino]pyridine-2-carboxamide]
